Measurements: article PMC4931847, “Preclinical validation of a novel compound targeting p70S6 kinase in breast cancer” (Aging (Albany NY), 2016)

How the values were obtained:
[1] = test system: MDA-MB-231 cells; assay: Soft agar anchorage-independent growth assay; format: cell-based, human; conditions: MDA-MB-231, soft agar, 3% WF, 10 or 20μM, three weeks
From the text: Vinculin was used as loading control. (B) Same as in (A) but the analysis was focused on STAT3 and Src signaling pathways. Actin was used as loading control. […] Two weeks later plates were stained with crystal violet and colonies photographed (C) and counted (D). […] After three weeks, colonies were photographed (E) and counted (F). Values reported in (D) and (F) represent the mean (± S.D.) of two independent experiments performed in duplicate. * p<0.05; ** p<0.01; *** p<0.001.
Both number and size of the colonies were affected, signifying that, in this context, activity of p70S6K was necessary for both survival and proliferation of breast cancer cells (Fig. 2E and F).
The experiments were performed in six-well tissue culture plates, in triplicate. Fresh medium was added to the wells twice a week as a feeder layer. After three weeks, the number of colonies was counted at 4X magnification.

[2] = test system: breast cancer local relapse; design: method as in PMID 23899505, PMID 24661902, PMID 18316551; conditions: mouse model of breast cancer ref 9,10,24; cited from earlier work
[3] = test system: advanced solid tumors; design: method as in PMID 24456794, PMID 24440085; conditions: cited from earlier work

| SMILES | ability to survive and grow in anchorage independence [1] | breast cancer local relapse [2] | clinical benefit ([3]; alone or in combination with erlotinib or everolimus, phase I trials ref 11,12) | tolerability ([3]; particularly when administered with erlotinib ref 11,12) |
| --- | --- | --- | --- | --- |
| CCc1cncnc1N1CCN(Cc2nc3ccc(C(F)(F)F)cc3[nH]2)CC1 [PF-4708671] | significantly decreased | strongly impaired | – | – |
| Cc1ccc(S(=O)(=O)O)cc1.Cn1cc(-c2ccc(F)c(C(F)(F)F)c2)nc1C1CCN(c2ncnc3[nH]ncc23)CC1 [LY2584702 tosylate] | – | – | very limited clinical benefit | low tolerability |
